# Key:
# [1] = test system: serum antibodies of cancer patients; assay: ELISA of cancer patient serum for reactivity with novopeptide; assay type: binding, human; conditions: serum from 23 cancer patients, standard ELISA (FIG. 8)
# Excerpt: Disclosed herein are embodiments of methods for performing novopeptide immunological screens. For example, disclosed herein are embodiments of methods for immunologically screening for the existence of a B cell response to a particular novopeptide comprising assaying for the presence of antibodies reactive to that novopeptide in serum samples from individuals having a type of cancerous cells predicted to express the novopeptide, and for the absence, or presence below a prespecified titer, of such reactive antibodies in serum obtained from one or more individuals not having such cancer. The presence in sera of antibodies reactive to a given novopeptide may be detected and quantified by an ELISA assay in which the novopeptide is adsorbed onto a solid surface, serum is applied, and antibodies remaining bound to the novopeptides after washing are detected. […] However, in at least some individuals, a strong immune response develops late in the tumor progression process. Therefore, serum antibody reactivity to a candidate novopeptide, even if detected in the serum of only one or a few individuals having the cancer type in question, is strong evidence that the novopeptide is expressed in that cancer type.
# Novopeptides in the FS database in association with particular tumor cell types were identified. […]
# SW480 tumor cells = assay: CTL assay (Cr release) with CTLs activated against novopeptide; assay type: cell-based, human; conditions: MHC-matched SW480 cells pulsed with peptide vs unpulsed (FIG. 9)
# Excerpt: These CTL's may then be tested for reactivity against each of (1) cancerous cells, and (2) non-cancerous cells, each having an MHC or HLA type matching that of the MHC or HLA for which the CTL's are specific.
# This is a standard Cr release assay that anyone skilled in the art would be able to do.
# [2] = test system: breast tumor driven by mutant rat Her2 gene; assay: Prophylactic immunization in BALB-neuT transgenic breast cancer model; assay type: in vivo; conditions: BALB-neuT mice, genetic prime/boost + KLH-peptide boost; vs non-treated and negative control (FIGS. 13a, 13b)
# Excerpt: From the candidate FS peptide sequences disclosed in Table 8 two candidates were selected for in vivo confirmation. The candidates chosen will be referred to herein as FS RBM (SEQ ID NO:232) and FS THAP2 (SEQ ID NO:238), these novopeptides having upstream in-frame portions that align with the mouse Rbm14 and Thap2 genes, respectively. […] The BALB-neuT mouse model is a transgenic mouse breast cancer model, in which all ten mammary glands of a female mouse will develop breast tumor around 20 weeks of age, driven by overexpression of a mutant rat Her2 gene.
# FS RBM and FS THAP2 peptides were tested in vivo as candidate peptide components of a prophylactic anti-cancer vaccine. BALB-neuT mice were immunized at 4 to 6 weeks old (primary genetic immunization); 8 to 10 weeks old (boost genetic immunization) and 12 to 14 weeks old (boost peptide immunization). All genetic immunization had the same genetic adjuvant for each bullet for gene gun immunization: 250 ng mixed LTA-LTB/pCMVi and 2.5 μgCpG 2216. All mice received two shots at each ear by gene gun for each genetic immunization. At primary immunization, the vaccine group got two shots of bullets containing 100 ng (high dosage) or 20 ng (low dosage) mixed FS antigen plasmids per bullet; while negative group got two shots of 100 ng mixed empty plasmids for each shot. […]
# [3] = test system: B16 F10 melanoma tumor cells; assay: Prophylactic genetic immunization (gene gun LEE + pGM-CSF), B16 F10 melanoma challenge; assay type: in vivo, C57BL6 mice
# 4T1 breast tumor cells = assay: Prophylactic genetic immunization, 4T1 breast tumor challenge; assay type: in vivo; conditions: Balb/c mice, 3.2 ng FS 1-78 LEE + 1 μg pGM-CSF, boost, challenge 1×10^4 4T1 cells; vs pGM-CSF alone and FS 6-21 controls (FIG. 5)
# Excerpt: Immunization with a single FS-novopeptide identified based on one tumor type may be immunoprotective against a different tumor type in a different mouse strain. Disclosed herein is a procedure for such immunization. Immunization with novopeptides common to multiple types of tumors can result in cross-protection, obviating the requirement that a patient must develop a tumor before a personalized vaccine can be formulated, prepared and administered. Balb/c mice were immunized in the same manner as the C57BL6 mice in Example 2 above, with 3.2 ng of FS 1-78 LEE+1 μg of pGM-CSF, and boosted with the same gene vaccine after 2 weeks. One week after the boost, mice were challenged with 1×10^4 4 T1 breast tumor cells. Seventeen days after 4T1 challenge, tumors started to grow.
# B16 melanoma line = assay: Therapeutic gene vaccine encoding SMC1A FS, B16 melanoma mouse tumor model; assay type: in vivo, mice; conditions: B16 inoculated, gene vaccine one day later
# Description: The FS was tested for therapeutic value as a vaccine in the mouse tumor model. The B16 melanoma line was inoculated into mice. One day later the mice were vaccinated with a gene vaccine encoding the FS.
# 4T1 tumor cells = assay: Prophylactic genetic immunization, BALB/C-4T1 mouse transplant breast tumor model; assay type: in vivo; conditions: three peptide components given together by genetic immunization at 7 and 13 weeks; challenge 5,000 4T1 cells; vs empty vector (FIG. 15)
# Description: Primary genetic immunization was administered with the three peptide components (10 mice) or with empty vector (negative controls, 4 mice) at 7 weeks old and 13 weeks old. Three weeks after the last immunization, all mice were challenged with 5,000 4T1 tumor cells. Tumor size was measured each day after palpable tumors appeared. […] Error bars show standard error.
substance,measurement,setting,value
"AVLLMCQLYQpwmckeyyrll* (AVLLMCQLYQPWMCKEYYRLL; Synthetic or recombinant sequence) [FS 6-21, frameshift novopeptide, 95 bp deletion]",antibody reactivity in sera of cancer patients,[1],one cancer patient in 23
same,CTL killing of tumor cells,SW480 tumor cells,able to kill MHC-matched tumor cells pulsed with FS 6-21 peptide
FS RBM: mouse novopeptide whose upstream in-frame portion aligns with the mouse Rbm14 gene (GRVIECDVVKGSCQDGEAVHWKSAPGGHRAGDPLTLRAVREGAGM; Synthetic or recombinant sequence),inhibition of first tumor onset and tumor progression,[2],significant prophylactic protection
FS THAP2: mouse novopeptide whose upstream in-frame portion aligns with the mouse Thap2 gene (FDFCTHIKSLVTFGLFLRGAGCSPSSFLL; Synthetic or recombinant sequence),inhibition of first tumor onset and tumor progression,[2],significant prophylactic protection
"IPRMQPQASAnhcqllkvmva* (LLMCQCQLYQPWMCKEYYRLL; Synthetic or recombinant peptide) [FS 1-78, frameshift novopeptide from B16-F10, 396 bp deletion in a zinc finger protein gene]",tumor growth,"[3]; C57BL6 mice, gene gun FS 1-78 LEE + 1 μg pGM-CSF, boost 2 weeks later, challenge 1×10^5 B16 F10 cells, vs empty LEE and no immunization (FIG. 4)",tumor growth was markedly delayed
same,tumor volume,[3]; highest dose (3.2 ng) of FS 1-78 LEE (FIG. 4),tumor volume decreased after the already delayed rise
same,4T1 tumor growth,4T1 breast tumor cells,significantly delayed and reduced 4T1 tumor growth
"NGSGCSGVYCHEEPQGEDSSV [FS SMC-1A, novopeptide from a frameshift of the SMC1A gene]",therapeutic effect on tumor size progression,B16 melanoma line; relative to control (FIG. 12a),no therapeutic effect on tumor size progression
same,survival time,B16 melanoma line; relative to control (FIG. 12b),did not show significant improvement in survival time
"SEQ ID NO: 310: first peptide of Table 9, frameshift predicted from mouse microsatellite locus (TLCMEVMLRWNTRELGYLYLQLCFLNTHFLHTSQEEKLLTLGRFLTWTSRCGSFVIRPL; Synthetic or recombinant sequence)",prophylactic inhibition of tumor progression (tumor size),4T1 tumor cells,effective in prophylactically inhibiting tumor progression
"SEQ ID NO: 311: second peptide of Table 9, frameshift predicted from mouse microsatellite locus (ICMSPPLLWATLQAPETTSAACKASYRPEGLYL; Synthetic or recombinant sequence)",prophylactic inhibition of tumor progression (tumor size),4T1 tumor cells,effective in prophylactically inhibiting tumor progression
"SEQ ID NO: 312: third peptide of Table 9, frameshift predicted from mouse microsatellite locus (YFSCDKRCIKHYAGNKSLLTFSGY; Synthetic or recombinant sequence)",prophylactic inhibition of tumor progression (tumor size),4T1 tumor cells,effective in prophylactically inhibiting tumor progression
